Numbers after ± are expanded uncertainties.
How the values were obtained:
[1] = wn = mass fraction of the nth substance listed; details: 3000 kPa, Liquid; for mass density: Vibrating tube method; for viscosity: Moving piston method
[2] = molar heat capacity at constant pressure; wn = mass fraction of the nth substance listed; details: 3000 kPa, Liquid, Flow calorimetry

N#C[S-].[Na+] [sodium thiocyanate] + N
Details	mass density [kg/m3]	molar heat capacity at constant pressure [J/K/mol]	viscosity [mPa·s]
[1], 269.4 K, w2 = 0.8921	707.7 ± 2	–	–
[1], 269.8 K, w2 = 0.8921	–	–	0.27 ± 0.05
[1], 270.4 K, w2 = 0.614	896.5 ± 2	–	–
[1], 270.4 K, w2 = 0.6824	850 ± 2	–	–
[1], 270.5 K, w2 = 0.4998	965.7 ± 2	–	–
[1], 270.5 K, w2 = 0.797	772.7 ± 2	–	–
[1], 270.6 K, w2 = 0.614	–	–	1.41 ± 0.05
[1], 270.6 K, w2 = 0.6824	–	–	0.82 ± 0.05
[1], 270.8 K, w2 = 0.4998	–	–	3.47 ± 0.05
[1], 270.8 K, w2 = 0.797	–	–	0.44 ± 0.05
[1], 274.8 K, w2 = 0.614	892.6 ± 2	–	–
[1], 274.8 K, w2 = 0.797	767.4 ± 2	–	–
[1], 274.9 K, w2 = 0.614	–	–	1.27 ± 0.05
[1], 274.9 K, w2 = 0.6824	848 ± 2	–	0.77 ± 0.05
[1], 275 K, w2 = 0.4998	962.2 ± 2	–	3.08 ± 0.05
[1], 275 K, w2 = 0.797	–	–	0.4 ± 0.05
[1], 275.2 K, w2 = 0.8921	699.9 ± 2	–	–
[1], 275.4 K, w2 = 0.8921	–	–	0.25 ± 0.05
[1], 279.3 K, w2 = 0.6824	844 ± 2	–	–
[1], 279.4 K, w2 = 0.614	888.8 ± 2	–	1.14 ± 0.05
[1], 279.4 K, w2 = 0.6824	–	–	0.7 ± 0.05
[1], 279.4 K, w2 = 0.797	761.7 ± 2	–	0.37 ± 0.05
[1], 279.5 K, w2 = 0.4998	959.3 ± 2	–	2.75 ± 0.05
[1], 283.8 K, w2 = 0.6824	839 ± 2	–	–
[1], 283.9 K, w2 = 0.797	756.4 ± 2	–	–
[1], 284 K, w2 = 0.614	884.9 ± 2	–	1.06 ± 0.05
[1], 284 K, w2 = 0.6824	–	–	0.65 ± 0.05
[1], 284.1 K, w2 = 0.4998	955.9 ± 2	–	2.43 ± 0.05
[1], 284.1 K, w2 = 0.797	–	–	0.35 ± 0.05
[1], 284.2 K, w2 = 0.8921	686.6 ± 2	–	–
[1], 284.3 K, w2 = 0.8921	–	–	0.22 ± 0.05
[1], 288.6 K, w2 = 0.614	881.6 ± 2	–	–
[1], 288.6 K, w2 = 0.6824	834 ± 2	–	–
[1], 288.6 K, w2 = 0.797	750.7 ± 2	–	–
[1], 288.7 K, w2 = 0.4998	952.2 ± 2	–	2.2 ± 0.05
[1], 288.7 K, w2 = 0.6824	–	–	0.61 ± 0.05
[1], 288.7 K, w2 = 0.797	–	–	0.33 ± 0.05
[1], 293.3 K, w2 = 0.614	878.3 ± 2	–	–
[1], 293.3 K, w2 = 0.6824	831 ± 2	–	0.57 ± 0.05
[1], 293.4 K, w2 = 0.4998	948.2 ± 2	–	1.95 ± 0.05
[1], 293.4 K, w2 = 0.614	–	–	0.89 ± 0.05
[1], 293.4 K, w2 = 0.797	745.1 ± 2	–	0.31 ± 0.05
[1], 293.5 K, w2 = 0.8921	674 ± 2	–	0.2 ± 0.05
[1], 298 K, w2 = 0.614	–	–	0.83 ± 0.05
[1], 298 K, w2 = 0.6824	828 ± 2	–	0.52 ± 0.05
[1], 298.1 K, w2 = 0.4998	–	–	1.73 ± 0.05
[1], 298.1 K, w2 = 0.614	875.8 ± 2	–	–
[1], 298.2 K, w2 = 0.4998	944.6 ± 2	–	–
[1], 302.7 K, w2 = 0.797	–	–	0.28 ± 0.05
[1], 302.8 K, w2 = 0.614	870 ± 2	–	0.76 ± 0.05
[1], 302.8 K, w2 = 0.6824	–	–	0.49 ± 0.05
[1], 302.8 K, w2 = 0.8921	–	–	0.18 ± 0.05
[1], 302.9 K, w2 = 0.4998	–	–	1.57 ± 0.05
[1], 302.9 K, w2 = 0.6824	821 ± 2	–	–
[1], 302.9 K, w2 = 0.797	734.7 ± 2	–	–
[1], 303 K, w2 = 0.4998	941 ± 2	–	–
[1], 303 K, w2 = 0.8921	660.5 ± 2.1	–	–
[1], 307.5 K, w2 = 0.614	–	–	0.71 ± 0.05
[1], 307.5 K, w2 = 0.6824	–	–	0.46 ± 0.05
[1], 307.5 K, w2 = 0.797	–	–	0.26 ± 0.05
[1], 307.6 K, w2 = 0.4998	–	–	1.41 ± 0.05
[1], 307.6 K, w2 = 0.614	866.2 ± 2	–	–
[1], 307.6 K, w2 = 0.6824	817 ± 2	–	–
[1], 307.6 K, w2 = 0.797	729.5 ± 2	–	–
[1], 307.7 K, w2 = 0.4998	937.1 ± 2	–	–
[1], 312.2 K, w2 = 0.6824	–	–	0.43 ± 0.05
[1], 312.2 K, w2 = 0.797	–	–	0.24 ± 0.05
[1], 312.2 K, w2 = 0.8921	–	–	0.16 ± 0.05
[1], 312.3 K, w2 = 0.4998	–	–	1.27 ± 0.05
[1], 312.3 K, w2 = 0.614	–	–	0.66 ± 0.05
[1], 312.3 K, w2 = 0.6824	811 ± 2	–	–
[1], 312.4 K, w2 = 0.4998	933.3 ± 2	–	–
[1], 312.4 K, w2 = 0.614	862.3 ± 2	–	–
[1], 312.4 K, w2 = 0.797	724.2 ± 2	–	–
[1], 312.4 K, w2 = 0.8921	648.1 ± 2.1	–	–
[1], 316.8 K, w2 = 0.797	–	–	0.23 ± 0.05
[1], 317 K, w2 = 0.614	857.4 ± 2	–	0.62 ± 0.05
[1], 317 K, w2 = 0.6824	–	–	0.4 ± 0.05
[1], 317.1 K, w2 = 0.4998	–	–	1.15 ± 0.05
[1], 317.1 K, w2 = 0.797	718.9 ± 2	–	–
[1], 317.2 K, w2 = 0.4998	929.3 ± 2	–	–
[1], 317.2 K, w2 = 0.6824	807 ± 2	–	–
[1], 321.5 K, w2 = 0.797	–	–	0.22 ± 0.05
[1], 321.6 K, w2 = 0.8921	–	–	0.15 ± 0.05
[1], 321.7 K, w2 = 0.614	–	–	0.57 ± 0.05
[1], 321.7 K, w2 = 0.6824	–	–	0.38 ± 0.05
[1], 321.8 K, w2 = 0.4998	–	–	1.06 ± 0.05
[1], 321.8 K, w2 = 0.614	852.4 ± 2	–	–
[1], 321.8 K, w2 = 0.797	713.6 ± 2	–	–
[1], 321.9 K, w2 = 0.4998	925.5 ± 2	–	–
[1], 321.9 K, w2 = 0.6824	800.5 ± 2	–	–
[1], 322 K, w2 = 0.8921	635.4 ± 2.1	–	–
[1], 326.4 K, w2 = 0.797	–	–	0.21 ± 0.05
[1], 326.5 K, w2 = 0.614	–	–	0.53 ± 0.05
[1], 326.5 K, w2 = 0.6824	–	–	0.36 ± 0.05
[1], 326.6 K, w2 = 0.4998	–	–	1 ± 0.05
[1], 326.6 K, w2 = 0.614	846.9 ± 2	–	–
[1], 326.6 K, w2 = 0.797	708.4 ± 2	–	–
[1], 326.7 K, w2 = 0.4998	921.4 ± 2	–	–
[1], 326.7 K, w2 = 0.6824	795 ± 2	–	–
[1], 331 K, w2 = 0.8921	–	–	0.13 ± 0.05
[1], 331.1 K, w2 = 0.797	–	–	0.2 ± 0.05
[1], 331.2 K, w2 = 0.614	–	–	0.51 ± 0.05
[1], 331.2 K, w2 = 0.6824	–	–	0.35 ± 0.05
[1], 331.4 K, w2 = 0.4998	–	–	0.92 ± 0.05
[1], 331.4 K, w2 = 0.614	843.1 ± 2	–	–
[1], 331.4 K, w2 = 0.6824	792 ± 2	–	–
[1], 331.4 K, w2 = 0.797	701 ± 2.1	–	–
[1], 331.5 K, w2 = 0.4998	917.4 ± 2	–	–
[1], 335.7 K, w2 = 0.797	–	–	0.19 ± 0.05
[1], 336 K, w2 = 0.6824	–	–	0.33 ± 0.05
[1], 336.1 K, w2 = 0.614	–	–	0.47 ± 0.05
[1], 336.2 K, w2 = 0.614	838.1 ± 2	–	–
[1], 336.2 K, w2 = 0.797	692.7 ± 2.1	–	–
[1], 336.3 K, w2 = 0.4998	913.3 ± 2	–	0.87 ± 0.05
[1], 336.3 K, w2 = 0.6824	783.1 ± 2.1	–	–
[1], 340.6 K, w2 = 0.797	–	–	0.18 ± 0.05
[1], 340.8 K, w2 = 0.614	–	–	0.46 ± 0.05
[1], 340.8 K, w2 = 0.6824	–	–	0.31 ± 0.05
[1], 341 K, w2 = 0.797	686.7 ± 2	–	–
[1], 341.1 K, w2 = 0.4998	–	–	0.82 ± 0.05
[1], 341.1 K, w2 = 0.614	832.6 ± 2	–	–
[1], 341.1 K, w2 = 0.6824	775.2 ± 2	–	–
[1], 341.2 K, w2 = 0.4998	909.2 ± 2	–	–
[1], 345.6 K, w2 = 0.614	–	–	0.43 ± 0.05
[1], 345.9 K, w2 = 0.4998	–	–	0.77 ± 0.05
[1], 346 K, w2 = 0.4998	905.1 ± 2.6	–	–
[1], 346 K, w2 = 0.614	826.5 ± 2.6	–	–
[1], 350.2 K, w2 = 0.614	–	–	0.4 ± 0.05
[1], 350.4 K, w2 = 0.4998	–	–	0.73 ± 0.05
[1], 350.9 K, w2 = 0.4998	900.9 ± 2.6	–	–
[1], 359.7 K, w2 = 0.4998	–	–	0.65 ± 0.05
[1], 369.5 K, w2 = 0.4998	–	–	0.58 ± 0.05
[2], 304.17 K, w2 = 0.4992	–	63.48 ± 0.84	–
[2], 304.17 K, w2 = 0.5988	–	72.55 ± 0.75	–
[2], 304.17 K, w2 = 0.7013	–	76.74 ± 0.69	–
[2], 304.17 K, w2 = 0.9	–	81.53 ± 0.57	–
[2], 314.14 K, w2 = 0.4992	–	64.61 ± 0.84	–
[2], 314.14 K, w2 = 0.5988	–	72.3 ± 0.75	–
[2], 314.14 K, w2 = 0.7013	–	77.73 ± 0.69	–
[2], 314.14 K, w2 = 0.7961	–	81.14 ± 0.63	–
[2], 314.14 K, w2 = 0.9	–	81.93 ± 0.57	–
[2], 324.11 K, w2 = 0.4992	–	64.64 ± 0.84	–
[2], 324.11 K, w2 = 0.5988	–	72.13 ± 0.75	–
[2], 324.11 K, w2 = 0.7013	–	77.86 ± 0.69	–
[2], 324.11 K, w2 = 0.7961	–	82.16 ± 0.63	–
[2], 324.11 K, w2 = 0.9	–	83.77 ± 0.57	–
[2], 334.09 K, w2 = 0.4992	–	65.26 ± 0.84	–
[2], 334.09 K, w2 = 0.5988	–	72.48 ± 0.75	–
[2], 334.09 K, w2 = 0.7013	–	78.17 ± 0.69	–
[2], 334.09 K, w2 = 0.7961	–	82.8 ± 0.63	–
[2], 334.09 K, w2 = 0.9	–	85.93 ± 0.57	–
[2], 344.07 K, w2 = 0.4992	–	65.94 ± 0.84	–
[2], 344.07 K, w2 = 0.5988	–	73.3 ± 0.75	–
[2], 344.07 K, w2 = 0.7013	–	79.2 ± 0.69	–
[2], 354.06 K, w2 = 0.4992	–	67.29 ± 0.84	–
[2], 354.06 K, w2 = 0.5988	–	74.12 ± 0.75	–
[2], 364.15 K, w2 = 0.4992	–	70.3 ± 0.84	–

— the NIST ThermoML archive (doi:10.1021/je200038n)
